Assay [1] deals with HT-29 human colon cancer cell line. As to the kind of experiment: In vitro cytotoxicity (MTT), HT-29. The assay is classed as cell-based. Conditions: HT-29, 72 h. As to the method: (§1) Metabolic activity was measured by the cells' ability to reduce the tetrazolium dye, 3-(4,5-dimethylthiazol-2-yl)-2,5-diphenyltetrazolium bromide (MTT), to a quantifiable colored formasan derivative. Surviving cells reduce the MTT dye. The inhibitory concentrations of killing 50% of the cells (IC50 s) were calculated. Testing was in accord with the following protocol:
(§2) Test compounds and a reference antineoplastic agent, ADRIAMYCIN (doxorubicin hydrochloride), were dissolved in dimethyl sulfoxide (DMSO) and diluted, first with Earle's Balanced Salt Solution, followed by culture medium, to twice the highest concentration of the compound to be tested. From this concentrated stock, two-fold serial dilutions were prepared in 96-well microtiter trays, each well containing twice the desired final concentration of the compound. Each concentration was tested in triplicate and compared to triplicate drug-free controls.
(§3) The cells were grown in the same medium used for diluting the compounds. Adherent cells were harvested by trypsinization according to the following procedure:
(§4) After harvesting by trypsinization, viable cell counts were determined and cell density was adjusted to 25,000 cells/mL. Inoculum (0.1 mL) was then added to each well for a final concentration of 2,500 cells per well. Addition of the inoculum was used to dilute the test compounds to the desired concentration.
(§5) Microtiter trays were incubated for three days at 36° C. in a humidified atmosphere containing 5% carbon dioxide.
(§6) After three days, 20 microliters of 5 mg/mL MTT in phosphate-buffered solution were added to each well of the microtiter trays. The microtiter trays were then returned to the incubator for two to four hours to allow the surviving cells to reduce the dye. After this incubation, both the medium and the unreduced dye were removed by aspiration. DMSO was added to each well to dissolve the water-insoluble, colored end product of the dye reduction for spectrophotometric measurement at 570 nm.
(§7) The results obtained which clearly show the cytotoxicity of the compounds of Examples 5, 6, 7 and 8 against […] tumor cell lines A549, HCT-8, HT-29 and P388-D1, are illustrated in Table 1. (A549 is a human lung cancer cell line; HCT-8 is a human colon cancer cell line; HT-29 is a human colon cancer cell line; and P388-D1 is a mouse leukemia cell line.)

Assay [2] has as its system A549 human lung cancer cell line. As to the kind of experiment: In vitro cytotoxicity (MTT), A549. It counts as cell-based. As to conditions: A549, 72 h. As to the method:
as §1, §2, §3, §4, §5, §6, §7

The subject of assay [3] is P388-D1 mouse leukemia cell line. As to the kind of experiment: In vitro cytotoxicity (MTT), P388-D1. It counts as cell-based. As to conditions: Mus musculus, P388D1, 72 h, read-out: In Vitro Cytotoxicity (IC50), P388-D1. As to the method: as §1, §2, §3, §4, §5, §6, §7
Assay [4] deals with C-26 colon adenocarcinoma. As to the kind of experiment: In vivo activity against C-26 implanted intraperitoneally (Example 44). Set-up: species or system mouse. As to the method:
(§8) The title compound of Example 37 above was tested against solid tumors in mice, using 1,3-bis(2-chloroethyl)-1-nitrosourea (BCNU) as a positive control. The tumor lines were M5076, an ovarian sarcoma implanted intraperitoneally (IP), and C-26, a colon adenocarcinoma, implanted intraperitoneally (IP) and subcutaneously (SC) in separate trials.
(§9) All drugs were administered in 5% aqueous dextrose or other suitable diluent. Drug efficacy was determined by prolonged survival times of the test animals or reduced tumor mass as compared to negative controls. Test groups consisted of 10 mice. Control groups consisted of 20 mice. Animals were of one sex and of similar weight. Prior to testing, the tumor cell lines were propagated in BALB/cj mice. Tumor implants were aliquots of a donor pool brei,
In the IP trials, the mean survival time (MST) of the groups of mice was determined, not counting animals surviving at the conclusion of the trial, and the mean lifespan comparison value of % MST(T/C) calculated, which value represents the ratio of treated to control group MST's expressed as a percentage.
For C-26 colon adenocarcinoma, the tumor was implanted into CD2 F1 mice, IP and SC in separate trials. For the C-26 IP trial, the tumor was implanted IP on day 0. The test compound were administered four times a day IP from day 1 to day 9 for a total of nine days. BCNU was administered four times a day on days 1, 5 and 9.

For assay [5], the system named is C-26 colon adenocarcinoma. Put plainly: In vivo activity against C-26 implanted subcutaneously (Example 44). Also noted: species or system mouse. Conditions: 10 mg/kg, compound 37 days 1-9, BCNU days 1, 5, 9. As to the method:
as §8, §9
For the C-26 SC trial, the tumor was implanted SC into mice on day 0. The test compound was administered four times a day IP from day 1 to day 9 for a total of nine days. BCNU was administered four times a day on days 1, 5, and 9. The mean tumor masses were determined on day 11 and day 21, and the experiment terminated on day 60. The mean tumor mass (MTM) inhibition value of % MTM(T/C) was calculated, which value represents the ratio of treated to control group MTM's expressed as a percentage.

Assay [6] deals with P388-ADR(0.0), ADRIAMYCIN-resistant variant of P388. As to the kind of experiment: In vitro cytotoxicity (MTT), P388-ADR(0.0). It counts as cell-based. Conditions: Mus musculus, 72 h, inoculum grown in drug-free medium, Table 2. As to the method: as §1, §2, §3, §4, §5, §6
(§10) Compounds from Examples 4, 6, 8, 9 and 10 were additionally tested against human and murine tumor cell lines A549, HT-29, P388-D1, P388, P388-ADR(0.0), P388-ADR(0.1) and B16F109. (P388 is a mouse leukemia cell line similar to P388-D1, but animal-passaged; P388-ADR (0.0) is an ADRIAMYCIN-resistant variant of P388, the inoculum of which is grown in drug-free medium; P388-ADR (0.1) is an ADRIAMYCIN-resistant variant of P388, the inoculum of which is grown in medium with 0.1 mcg.ml ADRIAMYCIN; and B16F10 is a mouse melanoma.) The results are presented in Table 2; as shown in the table, the compounds of the present invention are effective cytotoxic agents even against the ADRIAMYCIN-resistant cell line P388-ADR.

The next assay concerns B16F10 mouse melanoma. As to the kind of experiment: In vitro cytotoxicity (MTT), B16F10. As to conditions: B16-F10, 72 h, read-out: In Vitro Cytotoxicity (IC50). The assay is classed as cell-based. As to the method:
as §1, §2, §3, §4, §5, §6, §10

The test system of assay [7] is P388 mouse leukemia cell line. As to the kind of experiment: In vitro cytotoxicity (MTT), P388. The assay is classed as cell-based. Conditions: P388, 72 h, read-out: In Vitro Cytotoxicity (IC50). As to the method:
as §1, §2, §3, §4, §5, §6, §10

Setting [8] is: read-out: In Vitro Cytotoxicity (IC50), HT-29, Table 1, three day MTT assay.
Setting [9] is: read-out: In Vitro Cytotoxicity (IC50), A549, Table 1, three day MTT assay.
Where [10] appears, read: 10 mg/kg, compound 37 days 1-9, BCNU days 1, 5, 9.
Where [11] appears, read: read-out: In Vitro Cytotoxicity (IC50), HT-29, Table 2, ADR: average of two tests.
The mark [12] stands for this setting: read-out: In Vitro Cytotoxicity (IC50), A549, Table 2, ADR: average of two tests.

Values after ≈ are worked out from the molar mass of the structure shown. Structures can show the parent of a compound that is named as a salt. Where two headings read alike, the source gives them in different places.

For orientation: IC50 means the concentration that gives 50% inhibition.

Consider `CCOC(=O)c1cn2c3c(c(N4CCC(NC(C)=O)C4)c(F)cc3c1=O)Oc1cc(C)ccc1-2` (centres unmarked) [6, step 2, Ethyl 1-(3-acetamidopyrrolidin-1-yl)-2-fluoro-9-methyl-4-oxo-4H-quino[2,3,4-i,j][1,4]benzoxazine-5-carboxylate], for which the IC50 is 0.64 µg/mL (≈ 1.37 µM) in assay [1] (setting [8]); 1.01 µg/mL (≈ 2.17 µM) in assay [2] (setting [9]); 0.65 µg/mL (≈ 1.4 µM) in assay [3] (Table 1, three day MTT assay).
With `O=NN(CCCl)C(=O)NCCCl` [BCNU, 1,3-bis(2-chloroethyl)-1-nitrosourea, reference compound], in assay [4] (setting [10]), the “% MST(T/C)” value was 201% and the MST was 41.4. Further, the “test animals that survived the trial” value in assay [4] (BCNU 10 mg/kg (footnote b)) is recorded as “One of ten test animals survived the trial”. Also, in assay [5] (day 11), the “% MTM(T/C)” value is listed as 1% and the MTM is 2 mg. Besides, in assay [5] (day 21), the “% MTM(T/C)” value stood at 7% and the MTM is 244 mg.
On to `Cc1ccc2c(c1)-n1cc(C(=O)O)c(=O)c3cc(F)c(N4CCC(N)C4)c(c31)O2` (centres unmarked) [Example 4, 1-(3-aminopyrrolidin-1-yl)-2-fluoro-8-methyl-4-oxo-4H-quino[2,3,4-i,j][1,4]benzoxazine-5-carboxylic acid hydrochloride], for which the IC50 came out at 0.24 µg/mL in assay [6]; 0.0431 µg/mL in assay [1] (setting [11]); 0.122 µg/mL in assay [2] (setting [12]); 0.0221 µg/mL with B16F10 mouse melanoma; 0.0384 µg/mL in assay [7].
In the case of `CCOC(=O)c1cn2c3c(c(N4CCC(NC(C)=O)C4)c(F)cc3c1=O)Oc1cc([N+](=O)[O-])ccc1-2` (centres unmarked) [Example 5, Ethyl 1-(3-acetamidopyrrolidin1-yl)-2-fluoro-9-nitro-4-oxo-4H-quino[2,3,4-i,j][1,4]benzoxazine-5-carboxylate], the IC50 in assay [1] (setting [8]) was found to be 0.078 µg/mL (≈ 0.157 µM); in assay [2] (setting [9]), 0.13 µg/mL (≈ 0.262 µM); in assay [3] (Table 1, three day MTT assay), 0.011 µg/mL (≈ 0.0222 µM).
As to `NC1CCN(c2c(F)cc3c(=O)c(C(=O)O)cn4c3c2Oc2cc(F)ccc2-4)C1` (centres unmarked) [Example 7, 1-(3-aminopyrrolidin-1-yl)-2,9-difluoro-4-oxo-4H-quino[2,3,4-i,j][1,4]benzoxazine-5-carboxylic acid hydrochloride], the IC50 in assay [1] (setting [8]) came out at 0.21 µg/mL; in assay [1] (setting [11]) it was 0.2 µg/mL; in assay [2] (setting [9]), 4.1 µg/mL; in assay [2] (setting [12]) it was 4.1 µg/mL; in assay [3] (Table 1, three day MTT assay), 0.11 µg/mL; in assay [3] (Table 2, ADR value marked *: single test) it was 0.11 µg/mL.
As for `CCC[C@H](N)C(=O)NC1CCN(c2c(F)cc3c(=O)c(C(=O)O)cn4c3c2Oc2cc(C)ccc2-4)C1` (some centres unmarked) [Example 10, 1-(3-norvalylaminopyrrolidin-1-yl)-2-fluoro-9-methyl-4-oxo-4H-quino[2,3,4-i,j][1,4]benzoxazine-5-carboxylic acid hydrochloride], the IC50 came out at 0.447 µg/mL in assay [6]; 0.0875 µg/mL in assay [1] (setting [11]); 0.187 µg/mL in assay [2] (setting [12]); 0.0573 µg/mL with B16F10 mouse melanoma; 0.108 µg/mL in assay [7].
`Cc1cc(C)c2c(c1)-n1cc(C(=O)O)c(=O)c3cc(F)c(N4CCC(N)C4)c(c31)O2` (centres unmarked) [Example 15, 1-(3-aminopyrrolidin-1-yl)-8,10-dimethyl-2-fluoro-4-oxo-4H-quino[2,3,4-i,j][1,4]benzoxazine-5-carboxylic acid hydrochloride]: the IC50 in assay [1] (setting [11]) came to 0.015 µg/mL; in assay [2] (setting [12]), 0.034 µg/mL; with B16F10 mouse melanoma it was 0.015 µg/mL; in assay [7] it was 0.012 µg/mL.
On to `Cc1ccc2c(c1)Oc1c(N3CC[C@@H](N)C3)c(F)cc3c(=O)c(C(=O)O)cn-2c13` [Example 19, 1-((3R)-3-aminopyrrolidin-1-yl)-2-fluoro-9-methyl-4-oxo-4H-quino[2,3,4-i,j][1,4]benzoxazine-5-carboxylic acid hydrochloride], for which the IC50 is 0.052 µg/mL in assay [1] (setting [11]), 0.24 µg/mL in assay [2] (setting [12]), 0.049 µg/mL with B16F10 mouse melanoma and 0.047 µg/mL in assay [7].
For `CC(C)(C)c1ccc2c(c1)-n1cc(C(=O)O)c(=O)c3cc(F)c(N4CCC(N)C4)c(c31)O2` (centres unmarked) [Example 21, 1-(3-aminopyrrolidin-1-yl)-8-t-butyl-2-flouro-4-oxo-4H-quino[2,3,4-i,j][1,4]benzoxazine-5-carboxylic acid hydrochloride], in that order: 0.078 µg/mL, 0.247 µg/mL, 0.045 µg/mL and 0.063 µg/mL.
For `NC1CCN(c2c(F)cc3c(=O)c(C(=O)Nc4ccc(F)cc4F)cn4c3c2Oc2ccccc2-4)C1` (centres unmarked) [Example 30, 1-(3-aminopyrrolidin-1-yl)-2-fluoro-4-oxo-4H-quino[2,3,4-i,j][1,4]benzoxazine-5-(N-2,4-difluorphenyl)carboxamide hydrochloride], in that order: 1.6 µg/mL, 4.1 µg/mL, 1.3 µg/mL and 0.6 µg/mL.
On the same counts, the results for `NC1CCN(c2c(F)cc3c(=O)c(C(=O)O)cn4c3c2Oc2cc3c(cc2-4)OCO3)C1` (centres unmarked) [Example 32, 1(3-aminopyrrolidin-1-yl)-2-fluoro-8,9-methylenedioxy-4-oxo-4H-quino[2,3,4-i,j][1,4]benzoxazine-5-carboxylic acid hydrochloride] are 0.042 µg/mL, 0.134 µg/mL, 0.018 µg/mL and 0.022 µg/mL.
`CCOC(=O)c1cn2c3c(c(N4CCC(N)C4)c(F)cc3c1=O)Oc1cc3c(cc1-2)OCO3` (centres unmarked) [Example 35, Ethyl 1-(3-aminopyrrolidin-1-yl)-2-fluoro-8,9-methylenedioxy-4-oxo-4H-quino[2,3,4-i,j][1,4]benzoxazine-5-carboxylate]: the IC50 in assay [1] (setting [11]) was 0.093 µg/mL (≈ 0.205 µM); in assay [2] (setting [12]), 0.26 µg/mL (≈ 0.573 µM); in the assay with B16F10 mouse melanoma, 0.077 µg/mL (≈ 0.17 µM); in assay [7] it was 0.034 µg/mL (≈ 0.075 µM).

For the origin of these results see patent publication US5624924A, “Quinobenzothiazine antineoplastic agents” (priority 1994, dated 1997).
